From paper PMC10041525, “New Dual Inhibitors of Bacterial Topoisomerases with Broad-Spectrum Antibacterial Activity and In Vivo Efficacy against Vancomycin-Intermediate Staphylococcus aureus” (Journal of Medicinal Chemistry, 2023)
Converted amounts (≈) assume the structure as drawn.

Columns and labels:
[1] = molecular target: S. aureus topo IV (Staphylococcus aureus, UniProt P0C1S7)
Description: In all experiments, the activity of the
(§2) enzymes was determined prior to the testing of the compound and 1 unit (U) was defined as the
(§3) amount of enzyme required to just fully supercoil or decatenate the substrate. This amount of
(§4) enzyme was initially used in determination of control inhibitor activity. These experiments were
(§5) performed in duplicate. […] The final DMSO
(§6) concentration was 1% for all assays. All measurements were performed in quadruplicates. The
(§7) condition for each reaction were as follows:
− S. aureus gyrase supercoiling assay
(§8) 1 U of S. aureus gyrase was incubated with 0.5 µg of relaxed pBR322 DNA in a 30 µL reaction at
(§9) magnesium acetate, 10 mM DTT, 2 mM ATP, 500 mM potassium glutamate and 0.05 mg/mL
− S. aureus topo IV decatenation assay
(§10) 1 U of S. aureus topo IV was incubated with 20 µg kDNA in a 30 µL reaction at 37 °C for 30
(§11) mM ATP, 350 mM potassium glutamate and 0.05 mg/mL albumin.
(§12) − A. baumannii gyrase supercoiling assay
(§13) 1 U of A. baumannii gyrase was incubated with 0.5 µg of relaxed pBR322 DNA in a 30 µL reaction
(§14) blue), before being loaded on a 1.0% TAE gel run at 80V for 2 hours. Bands were visualised by
(§15) ethidium bromide staining for 20 minutes and destaining for 20 minutes. Gels were scanned using
(§16) documentation equipment (GeneGenius, Syngene, Cambridge, UK) and % inhibition levels were
(§17) measured by determining the relative fluorescence of the supercoiled band using gel scanning
software. […]

[2] = in vitro; conditions: mouse
Description: The assay was performed in cryopreserved mouse hepatocytes. First, the vials were thawed, the suspension added to “thawing media” and centrifuged to pellet the hepatocytes. The cell pellet was resuspended in Williams medium E (Invitrogen A1217601). […] A mixture of midazolam, diclofenac, and bufuralol at 1 μM was used as a positive control. The incubation was carried out on a heater-shaker at 37 °C, in a 24-well Picoplate (round bottom, PerkinElmer), with total incubation volume of 700 μL. […] The plate was incubated at 37 °C for 60 s. A zero sample was taken by removing 100 μL to a 96-well plate, and the reaction was quenched by adding 100 μL of acetonitrile with 50 nM warfarin as the internal standard. […] The LC–MS/MS method was the same as described above in Chapter LogD Determination.

[3] = system: MCF-7 cell line; test: MTS cytotoxicity assay; type: cell-based, human
Description: (§1) Briefly, Eagle’s minimum essential medium (Gibco, Thermo Fisher Scientific, Waltham, MA, USA) was used to culture the cells. The following supplements were added to the medium: L-glutamine (2 mM; Sigma-Aldrich, St. Louis, MO, USA), penicillin (100 U/mL; Sigma-Aldrich, St. Louis, MO, USA), streptomycin (100 μg/mL; Sigma-Aldrich, St. Louis, MO, USA), and fetal bovine serum (10%; Gibco, Thermo Fisher Scientific, Waltham, MA, USA). The cells were maintained at 37 °C in a humidified 5% CO2 atmosphere. The cells were plated in 96-well plates at a density of 2000 cells per well and incubated for 24 h. Then, the cells were treated with selected compounds, positive control (50 μM etoposide), or vehicle control (0.5% DMSO) and incubated for 72 h. The CellTiter96 Aqueous One Solution Reagent (10 μL; Promega, Madison, WI, USA) was then added to each well, and the plate was incubated for another 3 h. Absorbance at 490 nm was measured with a BioTek Synergy 4 Hybrid Microplate Reader (Winooski, VT, USA). Independent experiments were repeated three times, each performed in triplicate. Statistical significance (p < 0.05) was calculated with two-tailed Student’s t test between treated groups and DMSO. IC50 values (concentration of the compound that gives a half-maximal response) are given as average values from the independent measurements and were determined using GraphPad Prism 5.0 software (San Diego, CA, USA)

[4] = system: HepG2 cell line; test: MTS cytotoxicity assay; type: cell-based, human
Description: as §1

[5] = system: A. baumannii BM4652 and NMI clinical isolates; test: MIC, wild-type, efflux-defective and MDR clinical isolates; type: cell-based; conditions: Acinetobacter baumannii
[6] = molecular target: S. aureus DNA gyrase (Staphylococcus aureus, UniProt P0A0K8); test: gel-based supercoiling assay
Description: In all experiments, the activity of the
as §2, §3, §4, §5, §6, §7
− S. aureus gyrase supercoiling assay
as §8, §9
− S. aureus topo IV decatenation assay
as §10, §11, §12, §13, §14, §15, §16, §17
software. […]

[7] = physchem; conditions: pH 7.4
Description: 0.5 mL of 67 mM phosphate
(§18) in a rotational shaker (400 rpm) at 23 °C. After the incubation an aliquot of 200 µL was
(§19) 1 µL of the supernatant was transferred to 96-well plate in triplicate wells, diluted 100×
(§20) with acetonitrile/H2O (60/40) containing 50 nM warfarin as internal standard and analyzed
(§21) performed comparing to a separately constructed standard series (10 nM to 1000 nM).
(§22) shaker (900 rpm) at 37 °C. After the incubation an aliquot of 200 µL was transferred to a
(§23) conical glass insert and centrifuged for 30 min at 10 000 × g at 37 °C. The supernatant was
(§24) transferred to a new HPLC vial appropriately diluted (100×, 1000×, 5000×) with
(§25) acetonitrile/H2O (50/50) containing 50 nM warfarin as internal standard and analyzed by
(§26) performed comparing to a separately constructed standard curve between 3 nM to 20000

[8] = in vitro; conditions: pH 7.4; for Clint (pred. in vivo) / half-life at 1 h, 1 µM: microsomes
Description: Liver microsomal fractions were purchased from XenoTech LLC, (KS, USA). […] To initiate the reaction, 1 mM NADPH was added. Samples were taken at 0, 5, 10, 20, 40, and 60 min. To terminate the reaction, cold acetonitrile with warfarin as an internal standard was added. LC–MS/MS was used to analyze the samples and determine the amount of remaining parent compound. The LC–MS/MS method was the same as described above in Chapter LogD Determination.

[9] = thermodynamic solubility in phosphate buffer, LC-MS/MS; conditions: 100 mM phosphate buffer pH 7.4, 24 h, 37 °C
Description: 0.5 mL of 67 mM phosphate
as §18, §19, §20, §21, §22, §23, §24, §25, §26

[10] = in vivo pharmacokinetics, IV; parameters: species or system male CD-1 mice
Description: The in vivo pharmacokinetic studies of 7a were performed by Selvita d.o.o. (Zagreb, Croatia) in male CD-1 mice (Charles River). The test compound was administered via intravenous (iv) bolus at a dose of 1 mg/kg (dose volume 5 mL/kg). Blood samples were collected from the tail vein 0.05, 0.25, 0.5, 1.0, 2.0, 4.0, 8.0, and 24 h after administration from three animals per time point. Each animal was sampled 2–4 times throughout the time course of collection (six animals were used totally per each route). Blood samples were centrifuged at 1560g for 10 min at 4 °C. The samples were analyzed by LC–MS/MS. Prior to analysis, the samples were prepared by protein precipitation {20 μL of plasma + 20 μL of water + 240 μL of extraction solvent [acetonitrile/methanol (2:1 v/v) with 100 ng/mL diclofenac (IS)]}, and the extracts were diluted with water (1:3 v/v).
For LC–MS/MS analysis, a Shimadzu prominence HPLC system was used (HPLC pump: LC30AD, autosampler: SIL30ACMP, column oven: CTO30A) connected to an Applied Biosystems mass spectrometer (QTRAP 5500) operating in the positive TurboIonSpray mode. For separation, a Waters Acquity UPLC BEH C18 1.7 μm, 2.1 × 50 mm (Waters, Milford, MA) column was used, with an injection volume of 1 or 2 μL and a flow rate of 0.5 mL/min. The mobile phase consisted of 0.1% formic acid in water (solvent A) and 0.1% formic acid in acetonitrile (solvent B). Gradient: 0–0.05 min, 5% B; 0.05–0.80 min, 5–85% B; 0.80–1.00, 85% B; 1.00–1.01, 85–95% B; 1.01–1.50, 95% B; 1.50–1.51, 95–5% B, 1.51–2.00, 5% B.
Pharmacokinetic analysis was performed using WinNonlin Phoenix software (Certara, version 8.3) from the mean animal plasma concentration per group, per time point, non-compartmental analysis, and the target dose.

[11] = male, CD-1, mouse, plasma, IV 1 mg/kg

Sequence of S. aureus DNA gyrase (P0A0K8 whole entry): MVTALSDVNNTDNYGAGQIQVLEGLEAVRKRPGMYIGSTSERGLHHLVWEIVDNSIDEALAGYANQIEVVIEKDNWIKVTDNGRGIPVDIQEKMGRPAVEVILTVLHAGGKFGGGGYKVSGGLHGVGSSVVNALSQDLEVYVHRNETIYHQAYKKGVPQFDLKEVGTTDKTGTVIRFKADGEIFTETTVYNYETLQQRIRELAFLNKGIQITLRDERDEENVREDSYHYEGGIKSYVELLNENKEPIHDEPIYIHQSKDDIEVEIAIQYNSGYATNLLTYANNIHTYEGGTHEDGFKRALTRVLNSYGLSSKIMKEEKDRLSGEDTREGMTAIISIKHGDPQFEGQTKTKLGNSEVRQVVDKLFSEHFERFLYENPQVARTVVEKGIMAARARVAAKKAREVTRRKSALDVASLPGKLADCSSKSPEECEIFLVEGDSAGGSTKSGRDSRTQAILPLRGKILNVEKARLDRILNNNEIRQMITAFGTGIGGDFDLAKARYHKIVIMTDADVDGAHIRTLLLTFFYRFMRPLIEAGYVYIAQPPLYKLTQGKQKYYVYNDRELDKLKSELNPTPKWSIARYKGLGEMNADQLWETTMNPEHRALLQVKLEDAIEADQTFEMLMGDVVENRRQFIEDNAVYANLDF
Sequence of S. aureus DNA gyrase (P20831 whole entry, further chain): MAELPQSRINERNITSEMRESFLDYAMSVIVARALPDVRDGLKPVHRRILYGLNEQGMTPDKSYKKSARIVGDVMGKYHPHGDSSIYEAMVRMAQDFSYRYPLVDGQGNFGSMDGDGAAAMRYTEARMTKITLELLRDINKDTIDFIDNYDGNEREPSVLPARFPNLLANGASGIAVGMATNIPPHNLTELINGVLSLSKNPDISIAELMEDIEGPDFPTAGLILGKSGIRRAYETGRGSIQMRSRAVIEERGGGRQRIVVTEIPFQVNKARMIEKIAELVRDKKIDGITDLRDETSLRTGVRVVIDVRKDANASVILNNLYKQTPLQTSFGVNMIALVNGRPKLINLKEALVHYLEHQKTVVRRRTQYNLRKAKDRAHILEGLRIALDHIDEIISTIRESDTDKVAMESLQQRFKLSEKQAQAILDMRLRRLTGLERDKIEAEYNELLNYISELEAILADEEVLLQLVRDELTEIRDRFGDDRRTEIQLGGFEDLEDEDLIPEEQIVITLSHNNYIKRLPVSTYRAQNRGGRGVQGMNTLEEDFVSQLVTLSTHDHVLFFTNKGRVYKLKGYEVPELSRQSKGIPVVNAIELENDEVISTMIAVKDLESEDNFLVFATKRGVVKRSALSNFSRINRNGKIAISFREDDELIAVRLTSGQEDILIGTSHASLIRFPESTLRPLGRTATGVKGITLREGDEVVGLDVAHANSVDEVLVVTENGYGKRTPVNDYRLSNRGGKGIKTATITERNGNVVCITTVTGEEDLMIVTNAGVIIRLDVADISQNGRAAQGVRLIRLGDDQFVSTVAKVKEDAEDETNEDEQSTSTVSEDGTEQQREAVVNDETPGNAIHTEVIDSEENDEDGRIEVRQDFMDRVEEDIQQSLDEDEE
Sequence of S. aureus topo IV (P0C1S7 whole entry): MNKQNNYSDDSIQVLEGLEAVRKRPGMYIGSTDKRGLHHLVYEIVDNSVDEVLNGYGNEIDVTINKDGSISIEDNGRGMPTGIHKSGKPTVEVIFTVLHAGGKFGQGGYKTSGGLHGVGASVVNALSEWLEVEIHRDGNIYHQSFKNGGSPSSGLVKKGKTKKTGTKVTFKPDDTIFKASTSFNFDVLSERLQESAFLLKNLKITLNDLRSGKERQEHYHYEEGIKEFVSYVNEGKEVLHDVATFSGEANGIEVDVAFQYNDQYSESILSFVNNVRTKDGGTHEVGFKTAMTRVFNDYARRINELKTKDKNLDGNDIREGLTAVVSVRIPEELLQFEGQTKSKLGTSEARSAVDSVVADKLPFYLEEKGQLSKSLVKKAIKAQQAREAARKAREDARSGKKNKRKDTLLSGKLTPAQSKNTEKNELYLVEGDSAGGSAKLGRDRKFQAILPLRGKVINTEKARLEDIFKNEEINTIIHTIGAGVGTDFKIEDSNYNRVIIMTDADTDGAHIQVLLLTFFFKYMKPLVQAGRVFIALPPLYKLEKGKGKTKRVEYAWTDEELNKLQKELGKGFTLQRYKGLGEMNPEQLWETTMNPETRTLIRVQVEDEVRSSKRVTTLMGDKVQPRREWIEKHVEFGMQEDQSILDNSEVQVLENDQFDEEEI
Sequence of S. aureus topo IV (P0C1U9 whole entry, further chain): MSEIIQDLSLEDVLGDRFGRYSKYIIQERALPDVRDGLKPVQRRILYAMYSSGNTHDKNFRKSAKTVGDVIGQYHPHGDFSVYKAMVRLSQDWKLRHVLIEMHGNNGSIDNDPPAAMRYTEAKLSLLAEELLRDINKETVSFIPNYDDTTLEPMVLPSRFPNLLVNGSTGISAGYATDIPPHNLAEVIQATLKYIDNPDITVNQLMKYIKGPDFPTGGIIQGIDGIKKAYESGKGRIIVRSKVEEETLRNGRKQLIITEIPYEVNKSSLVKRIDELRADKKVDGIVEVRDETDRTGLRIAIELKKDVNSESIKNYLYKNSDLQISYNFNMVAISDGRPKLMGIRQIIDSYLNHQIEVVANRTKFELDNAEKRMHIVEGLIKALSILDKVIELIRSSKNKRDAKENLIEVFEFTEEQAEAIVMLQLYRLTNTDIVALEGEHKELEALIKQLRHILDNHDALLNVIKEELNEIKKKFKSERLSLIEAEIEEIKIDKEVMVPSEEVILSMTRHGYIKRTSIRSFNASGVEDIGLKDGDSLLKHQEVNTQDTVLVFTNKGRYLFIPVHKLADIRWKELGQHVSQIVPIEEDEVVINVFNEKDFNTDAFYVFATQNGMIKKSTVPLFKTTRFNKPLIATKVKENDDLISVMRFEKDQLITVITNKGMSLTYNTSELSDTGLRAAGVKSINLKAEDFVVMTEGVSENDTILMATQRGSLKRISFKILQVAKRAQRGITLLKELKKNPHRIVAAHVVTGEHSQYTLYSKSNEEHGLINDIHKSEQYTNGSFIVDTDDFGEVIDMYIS

SMILES: Cc1[nH]c(C(=O)Nc2nc3c(N4CCOCC4)cc(C(=O)O)cc3s2)c(Cl)c1Cl [7a, 2-(3,4-Dichloro-5-methyl-1H-pyrrole-2-carboxamido)-4-morpholinobenzo[d]thiazole-6-carboxylic Acid]
- IC50 [1]: 8 ± 1.2 nM
- ClH (pred.) [2]: 0.05 mL/min
- Clint (pred. in vivo) ([2]; hepatocytes): 2.1 mL/min
- half-life at 1.5 h, 1 µM ([2]; hepatocytes): 2.67 h
- hepatocyte CLint at 1.5 h, 1 µM ([2]; hepatocytes): 9 µL/min/1e6 cells
- cytotoxic concentration (no cytotoxicity up to) ([3]; with serum, 72 h): > 100 µM
- cytotoxic concentration (no cytotoxicity up to) ([3]; without fetal bovine serum): > 100 µM
- cytotoxic concentration (no cytotoxicity up to) ([4]; with serum, 72 h): > 100 µM
- cytotoxic concentration (no cytotoxicity up to) ([4]; without fetal bovine serum): > 100 µM
- MIC ([5]; A. baumannii BM4652, efflux-defective): < 0.125 µg/mL
- MIC ([5]; A. baumannii NMI 2692/14, clinical MDR): 1 µg/mL (≈ 2.2 µM)
- MIC ([5]; A. baumannii NMI 2699/14, clinical MDR): 1 µg/mL (≈ 2.2 µM)
- MIC ([5]; A. baumannii NMI 2704/14, clinical MDR): 1 µg/mL (≈ 2.2 µM)
- IC50 [6]: 1.22 ± 0.04 nM
- solubility thermodynamic at 24 h [7]: 168 µM (≈ 76.5 µg/mL)
- Clint (pred. in vivo) ([8]; human): 630 mL/min
- half-life at 1 h, 1 µM ([8]; human): 1.72 h
- ClH (pred.) ([8]; human): 14 mL/min
- Epred ([8]; human): 0.01
- Clint (pred. in vivo) ([8]; mouse): 1.3 mL/min
- half-life at 1 h, 1 µM ([8]; mouse): 1.45 h
- ClH (pred.) ([8]; mouse): 0.03 mL/min
- Epred ([8]; mouse): 0.01
- thermodynamic solubility, second method [9]: 167.9 µM (≈ 76.4 µg/mL)
- plasma clearance as % of liver blood flow ([10]; assuming 90 mL/min/kg): 61%
- AUC(0-inf) at 24 h [10, 11]: 304 ng·h/mL
- C0 at 24 h [10, 11]: 913 ng/mL
- clearance at 24 h [10, 11]: 54.8 mL/min/kg
- half-life at 24 h [10, 11]: 1 h
- AUC(0-t) at 24 h ([10]; male, CD-1, mouse, plasma, IV 1 mg/kg, read-out: AUC0–24h): 303 ng·h/mL
- Vd at 24 h ([10]; male, CD-1, mouse, plasma, IV 1 mg/kg, read-out: Vss): 2.3 L/kg
